From patent US8685986B2, “Medical composition for treatment or prophylaxis of glaucoma” (Ube Industries, Ltd., priority 2009, dated 2014)
Where a name gives a salt, the structure may show the parent alone. Read-outs that look alike come from different tables or passages of the source.

Legend:
human EP3 receptor = human EP3 receptor (Homo sapiens (Human), UniProt P43115); test: Measurement of EP3 receptor binding affinity ([3H]PGE2 displacement, membrane fraction of Chem-1 cells)
Experimental: (§1) With regard to EP3 and EP4 receptors, measurements of receptor binding affinity were carried out according to the following methods in the same manner as in Test example 1.
(§2) The membrane fraction was recovered on glass fiber filter paper (GF/B, available from Whatman PLC) pretreated with 0.3% polyethyleneimine by using a cell harvester (M30R, available from Brandel Inc.), and after washing with a buffer solution (50 mM Tris-HCl (pH 7.4)), radioactivity was measured with a liquid scintillation analyzer (2000CA, available from Packard). […] The dissociation constant (Kd value) was calculated by Scatchard analysis.

human EP4 receptor = human EP4 receptor (Homo sapiens (Human), UniProt P35408); test: Measurement of EP4 receptor binding affinity ([3H]PGE2 displacement, membrane fraction of Chem-1 cells)
human EP4 receptor, sequence (P35408 whole entry): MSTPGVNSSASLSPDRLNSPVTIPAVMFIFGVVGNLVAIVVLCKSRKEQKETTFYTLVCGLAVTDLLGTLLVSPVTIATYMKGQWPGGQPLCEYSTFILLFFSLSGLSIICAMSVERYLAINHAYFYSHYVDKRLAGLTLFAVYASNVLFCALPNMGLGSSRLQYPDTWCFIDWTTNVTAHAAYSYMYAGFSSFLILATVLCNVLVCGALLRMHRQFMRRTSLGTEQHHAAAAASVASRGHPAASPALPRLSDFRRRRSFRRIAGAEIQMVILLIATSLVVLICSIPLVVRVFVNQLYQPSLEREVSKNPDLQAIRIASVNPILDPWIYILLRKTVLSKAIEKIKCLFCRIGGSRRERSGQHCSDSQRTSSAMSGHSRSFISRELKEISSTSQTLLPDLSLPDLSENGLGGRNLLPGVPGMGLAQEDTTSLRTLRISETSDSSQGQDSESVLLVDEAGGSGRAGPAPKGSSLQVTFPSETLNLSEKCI
Experimental: as §1
as §2, with “HEPES-NaOH” for “Tris-HCl”, “7.4), 500 mM NaCl, 0.1% BSA),” for “7.4)),”

human EP2 receptor [1] = molecular target: T1, human EP2 receptor (Homo sapiens (Human), UniProt P43116); test: Measurement of EP2 agonist activity (cAMP amount in HEK 293 cells); format: cell-based; conditions: cAMP increase in HEK 293 cells expressing human EP2 receptor, 30 minutes
T1 sequence (P43116 whole entry): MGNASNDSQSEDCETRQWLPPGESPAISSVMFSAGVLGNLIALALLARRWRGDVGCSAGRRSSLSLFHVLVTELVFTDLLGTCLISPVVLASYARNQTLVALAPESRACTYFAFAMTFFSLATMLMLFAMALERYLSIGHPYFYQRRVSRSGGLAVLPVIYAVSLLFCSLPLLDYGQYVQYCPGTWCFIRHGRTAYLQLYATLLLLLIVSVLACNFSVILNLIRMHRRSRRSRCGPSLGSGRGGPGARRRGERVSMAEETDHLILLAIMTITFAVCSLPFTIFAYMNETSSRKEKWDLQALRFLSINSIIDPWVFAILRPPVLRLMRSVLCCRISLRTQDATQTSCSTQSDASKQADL
Experimental: Measurement of EP2 agonist activity was carried out according to the method of Wilson et al. (European Journal of Pharmacology, 501, 49 (2004)). HEK 293 cells (ES-562-C, available from Euroscreen S.A.) expressed human EP2 receptor were cultured in a MEM medium containing 10% FBS and seeded at 2×10^4 cells per each well of a 96-well plate. On the next day, the medium was replaced with serum-free MEM medium containing 3-isobutyl-1-methylxanthine (final concentration: 500 μM) and after culturing for 30 minutes, a test compound dissolved in dimethylsulfoxide was added followed by allowing to stand undisturbed in a carbon dioxide gas incubator. After 30 minutes, an amount of cAMP in the cells was measured with a cAMP Biotrak EIA System kit (available from GE Healthcare Bioscience).

human EP2 receptor [2] = molecular target: T1, human EP2 receptor; test: Measurement of EP2 receptor binding affinity ([3H]PGE2 displacement, membrane fraction of HEK293 cells)
Experimental: Measurement of EP2 receptor binding affinity was carried out according to the method of Abramovitz et al. (Biochimica et Biophysica Acta, 1483, 285 (2000)). […] The membrane fraction was recovered on glass fiber filter paper (GF/B, available from Whatman PLC) using a cell harvester (M30R, available from Brandel Inc.), and after washing with a buffer solution (10 mM MES-KOH (pH 6.0), 10 mM MgCl2), radioactivity was measured with a liquid scintillation analyzer (2000CA, available from Packard). […] The dissociation constant (Kd value) was calculated by Scatchard analysis.

human EP3 receptor, sequence (P43115 whole entry): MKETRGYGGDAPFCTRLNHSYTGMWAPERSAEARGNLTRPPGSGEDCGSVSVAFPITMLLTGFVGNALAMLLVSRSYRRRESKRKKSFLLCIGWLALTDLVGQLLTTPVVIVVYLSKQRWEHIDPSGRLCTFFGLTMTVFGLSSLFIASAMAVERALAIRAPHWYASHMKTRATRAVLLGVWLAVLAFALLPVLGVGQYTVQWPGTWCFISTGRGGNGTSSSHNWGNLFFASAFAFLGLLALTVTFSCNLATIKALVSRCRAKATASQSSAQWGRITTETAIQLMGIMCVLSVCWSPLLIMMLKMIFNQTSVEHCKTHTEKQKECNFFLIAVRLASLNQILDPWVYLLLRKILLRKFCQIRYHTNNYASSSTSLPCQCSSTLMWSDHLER

| Compound | Ki (human EP3 receptor) | Ki (human EP4 receptor) | Ki (human EP3 receptor; [3H]PGE2 2 nM, Chem-1 membrane fraction, Table 4) | EC50 (human EP2 receptor [1]) | Ki (human EP4 receptor; [3H]PGE2 1 nM, Chem-1 membrane fraction, Table 4) | Ki (human EP2 receptor [2]; PGE2 receptor selectivity, Table 4, read-out: EP2 receptor binding affinity Ki value) | Ki (human EP2 receptor [2]; [3H]PGE2 10 nM, HEK293 membrane fraction, Table 2, read-out: Ki value of EP2 receptor binding affinity) | Ki (human EP2 receptor [2]; read-out: Ki value of EP2 receptor binding affinity) |
| --- | --- | --- | --- | --- | --- | --- | --- | --- |
| O=C(O)CNc1cccc(CN(Cc2ccc(-c3nccs3)cc2)S(=O)(=O)c2cccnc2)n1 [Example 11, (6-{(Pyridin-3-ylsulfonyl)[4-(thiazol-2-yl)benzyl]aminomethyl}pyridin-2-ylamino)acetic Acid Trifluoroacetate] | > 10 µM | 2800 nM | – | – | – | – | – | – |
| O=C(O)CNc1cccc(CN(Cc2ccc(-c3nccs3)cc2)S(=O)(=O)c2ccccn2)n1 [Example 3] | – | – | > 10 µM | 0.45 nM | 4800 nM | 1.9 nM | 1.9 nM | – |
| O=C(O)CNc1cccc(CN(Cc2ccc(-c3nccs3)cc2)S(=O)(=O)c2ccc(F)cc2)n1 [Example 4, (6-{(4-Fluorobenzenesulfonyl)[4-(thiazol-2-yl)benzyl]aminomethyl}pyridin-2-ylamino)acetic Acid] | > 10 µM | 2900 nM | – | 0.29 nM | – | – | – | 2.8 nM |
